≈ marks a conversion by molar mass, not a printed value. Where “and” joins values, the source holds several entries; their conditions need not be identical. Identical values can stand only once.
What was measured:
[1] = Lipophilicity determination by RP-HPLC; assay type: physicochemical; conditions: RP-HPLC, logarithm of capacity factor k
Protocol: It is evident from the graphs in Figure 1 that the correlation coefficients of the dependences of log k/log D6.5/log D7.4 have a value of r = 0.999 (n = 32), which means that the investigated compounds behave insignificantly differently in aqueous media with different pH. Moreover, lipophilicity was calculated as log P and Clog P using two prediction programs. […] Therefore, only log P values predicted by ACD/Percepta can be used for correlations with experimental values. These matches are shown in the graphs in Figure 2, and according to the correlation coefficient r~0.940 (n = 32), it can be argued that even the predicted lipophilicity values correlate with the experimentally measured ones. However, the largest variations were observed (no difference for series 1, 2) for compounds substituted with 2-Cl, 2-CF3, 2,5-Cl, 4-F, 4-CF3, and 3,5-F, 3,5-Cl. These are mainly substituents capable of forming hydrogen and other types of non-bonding interactions both with the surrounding environment and within the molecule. Overall, series 1 (3-CF3) is less lipophilic than series 2 (4-CF3), but the differences in the experimental data are insignificant. Unsubstituted derivatives 1a/2a are the least lipophilic compounds, while derivatives 1o/2o (3,5-Cl) and 1p/2p (3,5-CF3) are the most lipophilic compounds.
Experimental determination of lipophilicity values (log k, log D6.5, and log D7.4) was performed under the same conditions and on the same device as described by Strharsky et al..

[2] = test system: Staphylococcus aureus ATCC 29213; assay: MIC, microtitration broth method; assay type: cell-based; conditions: ATCC29213, S. aureus ATCC 29213
[3] = test system: methicillin-resistant S. aureus SA 3202 (MRSA1); assay: MIC, microtitration broth method; assay type: cell-based; conditions: Staphylococcus aureus; MRSA SA 3202
[4] = test system: methicillin-resistant S. aureus SA 630 (MRSA2); assay: MIC, microtitration broth method; assay type: cell-based; conditions: Staphylococcus aureus; MRSA SA 630
[5] = test system: methicillin-resistant S. aureus 63718 (MRSA3); assay: MIC, microtitration broth method; assay type: cell-based; conditions: Staphylococcus aureus; MRSA 63718
[6] = test system: Enterococcus faecalis ATCC 29212; assay: MIC, microtitration broth method; assay type: cell-based; conditions: ATCC29212, E. faecalis reference strain
[7] = test system: vancomycin-resistant E. faecalis VRE 342B (VRE1); assay: MIC, microtitration broth method; assay type: cell-based, Enterococcus faecalis
[8] = test system: vancomycin-resistant E. faecalis VRE 368 (VRE2); assay: MIC, microtitration broth method; assay type: cell-based, Enterococcus faecalis
[9] = test system: vancomycin-resistant E. faecalis VRE 725B (VRE3); assay: MIC, microtitration broth method; assay type: cell-based, Enterococcus faecalis
M. smegmatis ATCC 700084 = assay: In vitro antimycobacterial evaluation (MIC); assay type: cell-based, Mycobacterium smegmatis; conditions: for MIC: Mycolicibacterium smegmatis, ATCC700084
[10] = test system: Staphylococcus aureus ATCC 29213; assay: MBC, agar aliquot subculture method; assay type: cell-based; conditions: ATCC29213, S. aureus ATCC 29213
[11] = test system: methicillin-resistant S. aureus SA 3202 (MRSA1); assay: MBC, agar aliquot subculture method; assay type: cell-based; conditions: Staphylococcus aureus; MRSA SA 3202
[12] = test system: methicillin-resistant S. aureus SA 630 (MRSA2); assay: MBC, agar aliquot subculture method; assay type: cell-based; conditions: Staphylococcus aureus; MRSA SA 630
[13] = test system: methicillin-resistant S. aureus 63718 (MRSA3); assay: MBC, agar aliquot subculture method; assay type: cell-based; conditions: Staphylococcus aureus; MRSA 63718
[14] = test system: Enterococcus faecalis ATCC 29212; assay: MBC, agar aliquot subculture method; assay type: cell-based; conditions: ATCC29212, E. faecalis reference strain
[15] = test system: vancomycin-resistant E. faecalis VRE 342B (VRE1); assay: MBC, agar aliquot subculture method; assay type: cell-based, Enterococcus faecalis
[16] = test system: vancomycin-resistant E. faecalis VRE 368 (VRE2); assay: MBC, agar aliquot subculture method; assay type: cell-based, Enterococcus faecalis
[17] = test system: vancomycin-resistant E. faecalis VRE 725B (VRE3); assay: MBC, agar aliquot subculture method; assay type: cell-based, Enterococcus faecalis
[18] = test system: human monocytic leukemia cell line THP-1; assay: In vitro cell viability (cytotoxicity screening); assay type: cell-based; conditions: 24 h, medium with 10% FBS, ± SD, n = 6
Protocol: The investigated anilides can be divided into three groups. […] Higher concentrations (than 10 or 30 µM) were not possible to evaluate due to precipitation of the tested compounds in water medium. Based on all these observations, it can be concluded that the high antimicrobial activity of 3,5-CF3-substituted compounds is associated with significant cytotoxic effect against eukaryotic cells. On the other hand, the other still effective compounds, especially agents 1j and 1o, have an insignificant toxic effect, which makes them interesting for further study.
Human monocytic leukemia THP-1 cells obtained from the European Collection of Cell Cultures (ECACC, Salisbury, UK) were used for in vitro antiproliferative assays. A recently described procedure was used.

S. aureus ATCC 29213 = assay: MTT assay, inhibition of bacterial respiration; assay type: cell-based, Staphylococcus aureus
From the text: The MTT assay can be used to assess cell growth by measuring respiration. Respiratory activity of bacterial cells (which is finally reflected in their viability) less than 70% after exposure to the MIC values for each tested compound is considered as a positive result of this assay. This low level of cell oxidative metabolism indicates inhibition of cell growth by inhibition of respiration. The lowest multiples of MIC values that achieved more than 70% inhibition of S. aureus ATCC 29213 viability (%) are shown in Table 3.
The percent inhibition of respiration of S. aureus ATCC 29213 was determined through the MTT assay. The assay was performed as described recently. The percent viability is calculated through the comparison of a measured value and that of the uninhibited control: % viability = OD570E/OD570P × 100, where OD570E is the reading from the compound-exposed cells, while OD570P is the reading from the uninhibited cells (positive control). Cytotoxic potential is determined by a percent viability of <70% [46, 47].

S. aureus/MRSA = assay: Antistaphylococcal activity, summary over strains; assay type: cell-based, Staphylococcus aureus
E. faecalis/VRE = assay: Anti-enterococcal activity, summary over strains; assay type: cell-based, Enterococcus faecalis
[19] = test system: Mycobacterium marinum CAMP 5644; assay: In vitro antimycobacterial evaluation (MIC); assay type: cell-based; conditions: Mycobacterium marinum, CAMP5644, M. marinum CAMP 5644

SMILES | log k [1] | MIC [2] | MIC [3] | MIC [4] | MIC [5] | MIC [6] | MIC [7] | MIC [8] | MIC [9] | MBC [10] | MBC [11] | MBC [12] | MBC [13] | MBC [14] | MBC [15] | IC50 [18] | Conc.: lowest multiple of MIC with at least 70% inhibition of respiratory activity (S. aureus ATCC 29213) | Conc.: the same concentration as multiple of MBC (S. aureus ATCC 29213) | melting point | MIC (M. smegmatis ATCC 700084) | other results
O=C(/C=C/c1ccc(C(F)(F)F)cc1)Nc1cccc(C(F)(F)F)c1 [2i, (2E)-N-[3-(Trifluoromethyl)phenyl]-3-[4-(trifluoromethyl)phenyl]prop-2-enamide] | 0.8867 | 1.39 µM (≈ 0.499 µg/mL) | 2.78 µM (≈ 0.999 µg/mL) | 1.39 µM (≈ 0.499 µg/mL) | 2.78 µM (≈ 0.999 µg/mL) | 11.1 µM (≈ 3.99 µg/mL) | 11.1 µM (≈ 3.99 µg/mL) | 11.1 µM (≈ 3.99 µg/mL) | 11.1 µM (≈ 3.99 µg/mL) | 1.39 µM (≈ 0.499 µg/mL) | 2.78 µM (≈ 0.999 µg/mL) | 1.39 µM (≈ 0.499 µg/mL) | 2.78 µM (≈ 0.999 µg/mL) | 11.1 µM (≈ 3.99 µg/mL) | 22.3 µM (≈ 8.01 µg/mL) | > 10 µM | 1× MIC (1× MBC) | 1× MIC (1× MBC) | 134 to 136 °C |  | MIC MS (M. smegmatis ATCC 700084): no effect; MBC [16]: 44.5 µM (≈ 16 µg/mL); MBC [17]: 11.1 µM (≈ 3.99 µg/mL); MIC (S. aureus/MRSA; Staphylococcus aureus, MRSA, average over the named compounds and strains, read-out: average MIC against S. aureus/MRSA): ~1.4 µM (≈ 0.503 µg/mL); antistaphylococcal MICs/MBCs (S. aureus/MRSA; range over S. aureus and MRSA isolates and over the named compounds): 0.15 to 5.57 µM and 0.146 to 5.57 µM; MIC (E. faecalis/VRE; Enterococcus faecalis, VRE, average over the named compounds and strains, read-out: average MIC against E. faecalis/VRE): ~15 µM (≈ 5.39 µg/mL); anti-enterococcal MICs/MBCs (E. faecalis/VRE; range over E. faecalis and VRE isolates and over the named compounds): 2.34 to 44.5 µM
NNC(=O)c1ccncc1 [INH, isoniazid, reference compound] |  |  |  |  |  |  |  |  |  |  |  |  |  |  |  |  |  |  |  | 117 µM (≈ 16 µg/mL) | MIC [19]: 36.6 µM (≈ 5.02 µg/mL)
O=C(/C=C/c1cccc(C(F)(F)F)c1)Nc1cccc(F)c1 [1c, (2E)-N-(3-Fluorophenyl)-3-[3-(trifluoromethyl)phenyl]prop-2-enamide] | 0.6333 | 12.9 µM (≈ 3.99 µg/mL) | 25.9 µM (≈ 8.01 µg/mL) | 12.9 µM (≈ 3.99 µg/mL) | 12.9 µM (≈ 3.99 µg/mL) |  |  |  |  | 25.9 µM (≈ 8.01 µg/mL) | 25.9 µM (≈ 8.01 µg/mL) | 12.9 µM (≈ 3.99 µg/mL) | 12.9 µM (≈ 3.99 µg/mL) |  |  | > 30 µM | 2 × MIC | 1 × MBC | 113 to 115 °C | 51.7 µM (≈ 16 µg/mL) | 
O=C(/C=C/c1cccc(C(F)(F)F)c1)Nc1cccc(Cl)c1 [1f, (2E)-N-(3-Chlorophenyl)-3-[3-(trifluoromethyl)phenyl]prop-2-enamide] | 0.8016 | 12.3 µM (≈ 4.01 µg/mL) | 6.14 µM (≈ 2 µg/mL) | 6.14 µM (≈ 2 µg/mL) | 6.14 µM (≈ 2 µg/mL) |  |  |  |  | 12.3 µM (≈ 4.01 µg/mL) | 6.14 µM (≈ 2 µg/mL) | 6.14 µM (≈ 2 µg/mL) | 12.3 µM (≈ 4.01 µg/mL) |  |  | > 10 µM | 1× MIC (1× MBC) | 1× MIC (1× MBC) | 126 to 128 °C | 24.6 µM (≈ 8.01 µg/mL) | 
CC1(C)S[C@@H]2[C@H](NC(=O)[C@H](N)c3ccccc3)C(=O)N2[C@H]1C(=O)O [AMP, ampicillin, reference compound] |  | 5.72 µM (≈ 2 µg/mL) | 45.8 µM (≈ 16 µg/mL) | 45.8 µM (≈ 16 µg/mL) | 45.8 µM (≈ 16 µg/mL) | 2.81 µM (≈ 0.982 µg/mL) | 11.5 µM (≈ 4.02 µg/mL) | 11.5 µM (≈ 4.02 µg/mL) | 11.5 µM (≈ 4.02 µg/mL) | > 5.72 µM | > 45.8 µM | > 45.8 µM | > 45.8 µM | 2.81 µM (≈ 0.982 µg/mL) | 11.5 µM (≈ 4.02 µg/mL) |  | 8× MIC (>8× MBC) | 8× MIC (>8× MBC) |  |  | MBC [16]: 11.5 µM (≈ 4.02 µg/mL); MBC [17]: 11.5 µM (≈ 4.02 µg/mL)
O=C(/C=C/c1cccc(C(F)(F)F)c1)Nc1ccc(Cl)cc1 [1g, (2E)-N-(4-Chlorophenyl)-3-[3-(trifluoromethyl)phenyl]prop-2-enamide] | 0.7982 | 24.6 µM (≈ 8.01 µg/mL) | 12.3 µM (≈ 4.01 µg/mL) | 6.14 µM (≈ 2 µg/mL) | 12.3 µM (≈ 4.01 µg/mL) |  |  |  |  | 49.1 µM (≈ 16 µg/mL) | 24.6 µM (≈ 8.01 µg/mL) | 6.14 µM (≈ 2 µg/mL) | 24.6 µM (≈ 8.01 µg/mL) |  |  | > 10 µM | 4 × MIC | 2 × MBC | 162 to 164 °C | 24.6 µM (≈ 8.01 µg/mL) | 
